From article PMC9848300, “Discovery of novel enasidenib analogues targeting inhibition of mutant isocitrate dehydrogenase 2 as antileukaemic agents” (Journal of Enzyme Inhibition and Medicinal Chemistry, 2023)
Where two headings read alike, the source gives them in different places.

Key:
A498 = experiment: NCI 60 antitumor screening (single dose / five doses); assay type: cell-based; details: Homo sapiens; A498, five doses (0.01–100 μM); read-out: GI50
[1] = tested on: 60 human subpanel cancer cell lines; experiment: NCI 60 antitumor screening, mean over the panel (single dose); assay type: cell-based; details: mean over 60 cancer cell lines, single dose 10 μM
Outline: (§1)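 NCI-60 protocol: single 10 μM dose against each cell line, run in triplicate. Percent growth (G%) of treated cells measured and growth inhibition reported as GI% = 100 − G%; panel mean also given.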

SNB-75 = experiment: NCI 60 antitumor screening (single dose / five doses); assay type: cell-based; details: Homo sapiens
SW-620 = experiment: as above; assay type: cell-based, human; details: for GI50: read-out: GI50
SK-MEL-5 = experiment: as above; assay type: cell-based; details: Homo sapiens
CCRF-CEM = experiment: as above; assay type: cell-based; details: Homo sapiens
SF-539 = experiment: as above; assay type: cell-based; details: Homo sapiens
SF-268 = experiment: NCI 60 antitumor screening (single dose); assay type: cell-based; details: Homo sapiens; SF-268 (CNS cancer), single dose 10 μM; read-out: Growth inhibition percentage (GI %)
Outline: as §1

NCI-H322M = experiment: NCI 60 antitumor screening (single dose); assay type: cell-based; details: Homo sapiens; NCI-H322M (non-small cell lung cancer), single dose 10 μM; read-out: Growth inhibition percentage (GI %)
Outline: (§2)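 At one concentration (10 μM), compounds are run in triplicate on 60 human cancer lines per the NCI method. Treated-cell growth is recorded as G%. Reported inhibition equals 100 − G%.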

M14 = experiment: NCI 60 antitumor screening (single dose); assay type: cell-based; details: Homo sapiens; M14 (melanoma), single dose 10 μM; read-out: Growth inhibition percentage (GI %)
Outline: as §2

CAKI-1 = experiment: NCI 60 antitumor screening (single dose); assay type: cell-based; details: Homo sapiens; CAKI-1 (renal cancer), single dose 10 μM; read-out: Growth inhibition percentage (GI %)
Outline: as §2

NCI-H23 = experiment: NCI 60 antitumor screening (single dose); assay type: cell-based; details: Homo sapiens; NCI-H23 (non-small cell lung cancer), single dose 10 μM; read-out: Growth inhibition percentage (GI %)
Outline: as §1

NCI-H522 = experiment: NCI 60 antitumor screening (single dose); assay type: cell-based; details: Homo sapiens; NCI-H522 (non-small cell lung cancer), single dose 10 μM; read-out: Growth inhibition percentage (GI %)
Outline: as §1

MCF7 = experiment: NCI 60 antitumor screening (single dose); assay type: cell-based; details: Homo sapiens; MCF7 (breast cancer), single dose 10 μM; read-out: Growth inhibition percentage (GI %)
Outline: as §2

A549/ATCC = experiment: NCI 60 antitumor screening (single dose); assay type: cell-based; details: Homo sapiens; A549/ATCC (non-small cell lung cancer), single dose 10 μM; read-out: Growth inhibition percentage (GI %)
Outline: as §2

HT29 = experiment: NCI 60 antitumor screening (single dose / five doses); assay type: cell-based, human; details: for GI50: read-out: GI50
HCT-15 = experiment: as above; assay type: cell-based; details: Homo sapiens
HL-60(TB) = experiment: as above; assay type: cell-based; details: Homo sapiens
UO-31 = experiment: as above; assay type: cell-based; details: Homo sapiens
786-0 = experiment: as above; assay type: cell-based; details: Homo sapiens
MDA-MB-231/ATCC = experiment: as above; assay type: cell-based; details: Homo sapiens
MALME-3M = experiment: as above; assay type: cell-based; details: Homo sapiens
MDA-MB-435 = experiment: as above; assay type: cell-based; details: Homo sapiens; MDA-MB-435 (melanoma), single dose 10 μM; read-out: Growth inhibition percentage (GI %)
BT-549 = experiment: as above; assay type: cell-based; details: Homo sapiens
MOLT-4 = experiment: as above; assay type: cell-based; details: Homo sapiens
RXF 393 = experiment: as above; assay type: cell-based; details: Homo sapiens
RPMI-8226 = experiment: as above; assay type: cell-based; details: Homo sapiens
UACC-62 = experiment: as above; assay type: cell-based; details: Homo sapiens; UACC-62 (melanoma), single dose 10 μM; read-out: Growth inhibition percentage (GI %)

## Brc1cccc(/C=N/Nc2nc(N/N=C/c3cccc(Br)c3)nc(N3CCOCC3)n2)c1 [compound 6c, 2,4-Bis[(E)-2-[(3-bromophenyl)methylidene]hydrazin-1-yl]-6-(morpholin-4-yl)-1,3,5-triazine]
A498
  GI50: 0.14 µM
[1]
  Mean GI %: 66%
SNB-75; SNB-75 (CNS cancer), single dose 10 μM, read-out: Growth inhibition percentage (GI %)
  inhibition at 10 µM: -7.5%
SNB-75; SNB-75, five doses (0.01–100 μM), read-out: GI50
  GI50: 4.54 µM
SW-620; Homo sapiens, SW-620, SW-620, five doses (0.01–100 μM)
  GI50: 0.82 µM
SW-620; Homo sapiens, SW-620 (colon cancer), single dose 10 μM, read-out: Growth inhibition percentage (GI %)
  inhibition at 10 µM: 75.3%
SW-620; SW-620, five doses (0.01–100 μM)
  GI50: 0.83 µM
SK-MEL-5; SK-MEL-5 (melanoma), single dose 10 μM, read-out: Growth inhibition percentage (GI %)
  inhibition at 10 µM: 79.3%
SK-MEL-5; SK-MEL-5, five doses (0.01–100 μM), read-out: GI50
  GI50: 1.99 µM
CCRF-CEM; CCRF-CEM (leukaemia), single dose 10 μM, read-out: Growth inhibition percentage (GI %)
  inhibition at 10 µM: 79%
CCRF-CEM; CCRF-CEM, five doses (0.01–100 μM), read-out: GI50
  GI50: 0.57 µM
SF-539; SF-539 (CNS cancer), single dose 10 μM, read-out: Growth inhibition percentage (GI %)
  inhibition at 10 µM: 43.6%
SF-539; SF-539, five doses (0.01–100 μM), read-out: GI50
  GI50: 3.83 µM
SF-268
  inhibition at 10 µM: 31.6%
NCI-H322M
  inhibition at 10 µM: 47.2%
M14
  inhibition at 10 µM: 68.3%
CAKI-1
  inhibition at 10 µM: 84.6%
NCI-H23
  inhibition at 10 µM: 56.9%
NCI-H522
  inhibition at 10 µM: 66.5%
MCF7
  inhibition at 10 µM: 77.9%
A549/ATCC
  inhibition at 10 µM: 57.4%
HT29; HT29, five doses (0.01–100 μM)
  GI50: 0.61 µM
HT29; Homo sapiens, HT-29, HT29, five doses (0.01–100 μM)
  GI50: 0.6 µM
HT29; Homo sapiens, HT-29, HT29 (colon cancer), single dose 10 μM, read-out: Growth inhibition percentage (GI %)
  inhibition at 10 µM: 93.4%
HCT-15; HCT-15 (colon cancer), single dose 10 μM, read-out: Growth inhibition percentage (GI %)
  inhibition at 10 µM: 109%
HCT-15; HCT-15, five doses (0.01–100 μM), read-out: GI50
  GI50: 0.42 µM
HL-60(TB); HL-60(TB) (leukaemia), single dose 10 μM, read-out: Growth inhibition percentage (GI %)
  inhibition at 10 µM: 110%
HL-60(TB); HL-60(TB), five doses (0.01–100 μM), read-out: GI50
  GI50: 0.15 µM
UO-31; UO-31 (renal cancer), single dose 10 μM, read-out: Growth inhibition percentage (GI %)
  inhibition at 10 µM: 74.5%
UO-31; UO-31, five doses (0.01–100 μM), read-out: GI50
  GI50: 1.01 µM
786-0; 786-0, 786-0 (renal cancer), single dose 10 μM, read-out: Growth inhibition percentage (GI %)
  inhibition at 10 µM: 75.5%
786-0; 786-0, five doses (0.01–100 μM), read-out: GI50
  GI50: 0.53 µM
MDA-MB-231/ATCC; MDA-MB-231/ ATCC, five doses (0.01–100 μM), read-out: GI50
  GI50: 3.97 µM
MDA-MB-231/ATCC; MDA-MB-231/ATCC (breast cancer), single dose 10 μM, read-out: Growth inhibition percentage (GI %)
  inhibition at 10 µM: 33.9%
MALME-3M; MALME-3M (melanoma), single dose 10 μM, read-out: Growth inhibition percentage (GI %)
  inhibition at 10 µM: 154%
MALME-3M; MALME-3M, five doses (0.01–100 μM), read-out: GI50
  GI50: 1.88 µM
MDA-MB-435
  inhibition at 10 µM: 66.6%
BT-549; BT-549 (breast cancer), single dose 10 μM, read-out: Growth inhibition percentage (GI %)
  inhibition at 10 µM: 47.3%
BT-549; BT-549, five doses (0.01–100 μM), read-out: GI50
  GI50: 3.54 µM
MOLT-4; MOLT-4 (leukaemia), single dose 10 μM, read-out: Growth inhibition percentage (GI %)
  inhibition at 10 µM: 89.8%
MOLT-4; MOLT-4, five doses (0.01–100 μM), read-out: GI50
  GI50: 0.68 µM
RXF 393; RXF 393 (renal cancer), single dose 10 μM, read-out: Growth inhibition percentage (GI %)
  inhibition at 10 µM: 168%
RXF 393; RXF 393, five doses (0.01–100 μM), read-out: GI50
  GI50: 0.16 µM
RPMI-8226; RPMI-8226 (leukaemia), single dose 10 μM, read-out: Growth inhibition percentage (GI %)
  inhibition at 10 µM: 65.8%
RPMI-8226; RPMI-8226, five doses (0.01–100 μM), read-out: GI50
  GI50: 1.68 µM
UACC-62
  inhibition at 10 µM: 44%
